Measured values as given in patent US5424426A, “Dithiolanylglycine-containing HIV protease inhibitors of the hydroxyethylene isostere type” (Bayer Aktiengesellschaft, priority 1992, dated 1995).
Where a name gives a salt, the structure may show the parent alone.

Columns and labels:
[1] = molecular target: T1, HIV protease (HIV-1) (Human immunodeficiency virus type 1 group M subtype B, UniProt P04585); assay: HIV-specific protease enzyme test (RP-HPLC analysis of synthetic peptide cleavage); assay type: biochemical; conditions: purified HIV protease, synthetic Gag cleavage-site peptide
T1 construct: purified HIV protease was incubated with synthetic peptide
Procedure: The results of the examples listed below were determined by the HIV test system described in the following references [cf. Hansen, J., Billich, S., Schulze, T., Sukrow, S. and Molling, K. (1988), EMBO Journal, Vol. 7, No. 6, pp. 1785-1791]: purified HIV protease was incubated with synthetic peptide which imitates a cleavage site in the Gag precursor protein and represents an in vivo cleavage site of the HIV protease. The resulting cleavage products of the synthetic peptide were analysed by means of reverse phase high performance liquid chromatography (RP-HPLC). The IC50 values given relate to the substance concentration which causes a 50% strength inhibition of the protease activity under the above-mentioned test conditions.

[2] = system: HIV; assay: HIV infection in cell culture, syncytia formation in PBLs; assay type: cell-based; conditions: HIV-infected normal human blood lymphocytes (PBLs); 50% suppression of virus-induced syncytia
Procedure: (§1) The HIV test was carried out with slight modifications by the method of Pauwels et al. [cf. Journal of Virological Methods 20, (1988), 309-321].
Normal human blood lymphocytes (PBLs) were enriched on Ficoll-Hypaque and stimulated in RPMI 1640, 20% foetal calf serum containing phytohaemagglutinin (90 μg/ml) and interleukin-2 (40 U/ml). For infection with the infectious HIV, PBLs were pelleted and the cell pellet was then suspended in 1 ml of HIV virus adsorption solution and incubated for 1 hour at 37° C.
The virus adsorption solution was centrifuged and the infected cell pellet taken up in growth medium so that a concentration of 1×10^5 cells per ml was established. The cells infected in such a way were pipetted at 1×10^4 cells/well into the wells of 96-well microtitre plates.
The first vertical row of the microtitre plate contained only growth medium and cells which had not been infected, but otherwise had been treated exactly as described above (cell control). The second vertical row of the microtitre plate contained only HIV-infected cells (virus control) in growth medium. The other wells contained the compounds according to the invention in different concentrations, starting from the wells of the 3rd vertical row of the microtitre plate, from which the test substances were diluted 2^10 times in steps of two.
The test batches were incubated at 37° C. until in the untreated virus control the syncytia formation typical of HIV occurred (between day 3 and 6 after infection), which was then assessed by microscopy.
(§2) The IC50 values were determined as the concentrations of the […] at which 50% (about 10 syncytia) of the virus-induced syncytia were suppressed by the treatment with the compound according to the invention.

[3] = system: HIV; assay: HIV infection in cell culture, H-9 cells; assay type: cell-based; conditions: HIV-infected H-9 cells
Procedure: as §1, §2

Row | Compound | IC50 [1] [nM] | IC50 [2] [nM] | IC50 [3] [nM]
1 | 1-{(2R,4S,5S)-5-[(2S)-3-(tert-Butylsulphonyl)-2-(1-naphthylmethyl)propanoyl]-(2R)-N-(tert-butoxycarbonyl)-2-amino-2-[2-(1,3-dithiolan-2-yl)ethanoyl]amino-6-cyclohexyl-4-hydroxy-2-(1-methyl)ethyl-hexanoyl}-S-isoleucinyl-2-pyridylamide [Example 8] | 1.2 to 9 | 1000 | 
2 | 1-{(2R,S,4S,5S) -5-[(2R)-N-(tert-Butoxycarbonyl)-2-amino-2-[2-(1,3-dithiolan-2-yl)]ethanoyl]amino-6-cyclohexyl-4-hydroxy-2-(1-methyl)ethyl-hexanoyl}-S-isoleucinyl2-pyridylamide [Example 1] | 1.4 to 9 | > 1000 | 
3 | 1-}(2S,4S,5S)-5-[(2S)-3-(tert-Butylsulphonyl)-2-(1-naphthylmethyl)propanoyl]-(2R)-N-(tert-butoxycarbonyl)-2-amino-2-[2-(1,3-dithiolan-2-yl)]ethanoyl]amino-6-cyclohexyl-4-hydroxy-2-(1-methyl)ethyl-hexanoyl}-S-isoleucinyl-2-pyridylamide [Example 9] | 1 to 9 | 40 | 11
4 | CC[C@H](C)[C@H](NC(=O)C(C[C@H](O)[C@H](CC1CCCCC1)NC(=O)[C@@H](N)C1SCCS1)C(C)C)C(=O)Nc1ccccn1 (stereo partly drawn) [Example 2, 1-{(2R,S;4S,5S)-5-[(2R)-2-Amino-2-[2-(1,3-dithiolan-2-yl)]ethanoyl]-amino-6-cyclohexyl-4-hydroxy-2-(1-methyl)ethyl-hexanoyl}-S-isoleucinyl-2-pyridylamide dihydrochloride] | 1.3 to 9 | 10000 | 
5 | CC[C@H](C)[C@H](NC(=O)[C@H](Cc1ccccc1)C[C@H](O)[C@H](CC1CCCCC1)NC(=O)[C@@H](NC(=O)OC(C)(C)C)C1SCCS1)C(=O)Nc1ccccn1 [Example 3, 1-{(2R,4S,5S)-5-[(2R)-N-(tert-Butoxycarbonyl)-2-amino-2-[2-(1,3-dithiolan-2-yl)]ethanoyl]amino-6-cyclohexyl-4-hydroxy-2-(phenyl)methyl-hexanoyl}-S-isoleucinyl-2-pyridylamide] | 13 to 80 | 1000 | 
6 | CC[C@H](C)[C@H](NC(=O)[C@@H](Cc1ccccc1)C[C@H](O)[C@H](CC1CCCCC1)NC(=O)[C@@H](NC(=O)OC(C)(C)C)C1SCCS1)C(=O)Nc1ccccn1 [Example 4, 1-{(2S,4S,5S)-5-[(2R)-N-(tert-Butoxycarbonyl)-2-amino-2-[2-(1,3-dithiolan-2-yl)]ethanoyl]amino-6-cyclohexyl-4-hydroxy-2-(phenyl)methyl-hexanoyl}-S-isoleucinyl2-pyridylamide] | 16 to 80 | 1000 | 
7 | C=CCC(C[C@H](O)[C@H](CC1CCCCC1)NC(=O)[C@@H](NC(=O)OC(C)(C)C)C1SCCS1)C(=O)N[C@H](C(=O)Nc1ccccn1)[C@@H](C)CC (stereo partly drawn) [Example 5, 1-{(2R,S,4S,5S)-5-[(2R)-N-(tert-Butoxycarbonyl)-2-amino-2-[2-(1,3-dithiolan-2-yl)]ethanoyl]amino-6-cyclohexyl-4-hydroxy-2-(2-propenyl)-hexanoyl}-S-isoleucinyl-2-pyridylamide] | 1.4 to 9 | 400 | 
